The structures appear in SMILES notation. “And” between values parts separate entries of the source, which are not always exact repeats. Equal values may be shown once. Inconclusive results and toxic doses are left out.

The assay deals with P388 leukemia ip, CD2F1 mice, survival T/C. In words: NCI In Vivo Anticancer Drug Screen. Data for tumor model P388 Leukemia (intraperitoneal) in CD2F1 (CDF1) mice. As to conditions: endpoint: median survival time, higher = longer survival. The method in brief: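 Mice carrying the transplanted tumor received test compound or vehicle. Survival was recorded in each group, and the value is the treated-group measurement divided by that of the vehicle-treated control group.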

Setting [1] is: dose: 100.0 mg/kg/injection, schedule: Q04DX003 (ip), vehicle: saline with Tween-80.
Where [2] appears, read: dose: 12.5 mg/kg/injection, schedule: Q01DX009 (ip), vehicle: saline with Tween-80.
The mark [3] stands for this setting: dose: 25.0 mg/kg/injection, schedule: Q01DX009 (ip), vehicle: saline with Tween-80.
Setting [4] is: dose: 50.0 mg/kg/injection, schedule: Q01DX009 (ip), vehicle: Klucel (hydroxypropylcellulose) (HPC).
Where [5] appears, read: dose: 100.0 mg/kg/injection, schedule: Q01DX009 (ip), vehicle: Klucel (hydroxypropylcellulose) (HPC).
[6] abbreviates: dose: 200.0 mg/kg/injection, schedule: Q01DX009 (ip), vehicle: Klucel (hydroxypropylcellulose) (HPC).
The mark [7] stands for this setting: dose: 50.0 mg/kg/injection, schedule: Q01DX009 (ip), vehicle: saline with Tween-80.
Setting [8] is: dose: 60.0 mg/kg/injection, schedule: Q01DX005 (ip), vehicle: saline with Tween-80.
The mark [9] stands for this setting: dose: 120.0 mg/kg/injection, schedule: Q01DX005 (ip), vehicle: saline with Tween-80.
Where [10] appears, read: dose: 240.0 mg/kg/injection, schedule: Q01DX005 (ip), vehicle: saline with Tween-80.
[11] abbreviates: dose: 50.0 mg/kg/injection, schedule: Q01DX005 (ip), vehicle: saline.
The mark [12] stands for this setting: dose: 100.0 mg/kg/injection, schedule: Q01DX005 (ip), vehicle: saline.
Setting [13] is: dose: 200.0 mg/kg/injection, schedule: Q01DX005 (ip), vehicle: saline.
Where [14] appears, read: dose: 50.0 mg/kg/injection, schedule: Q01DX005 (ip), vehicle: Klucel (hydroxypropylcellulose) (HPC).
Setting [15] is: dose: 100.0 mg/kg/injection, schedule: Q01DX005 (ip), vehicle: Klucel (hydroxypropylcellulose) (HPC).

In the case of `CC1([N+](=O)[O-])C(=O)C2(N3CCCCC3)CCCC2C1c1ccccc1` (stereo not drawn), the T/C reads like this: (dose: 60.0 mg/kg/injection, schedule: Q01DX005 (ip), vehicle: Klucel (hydroxypropylcellulose) (HPC)) 99 % of control; (dose: 120.0 mg/kg/injection, schedule: Q01DX005 (ip), vehicle: Klucel (hydroxypropylcellulose) (HPC)) 96 % of control; (dose: 240.0 mg/kg/injection, schedule: Q01DX005 (ip), vehicle: Klucel (hydroxypropylcellulose) (HPC)) 97 % of control.

As to `CCN(CC)CCCC(Nc1c2ccc(Cl)cc2nc2ccc(OC)cc12)c1ccc(F)cc1` (stereo not drawn), the T/C was 96 % of control (dose: 12.5 mg/kg/injection, schedule: Q01DX005 (ip), vehicle: saline with Tween-80); 98 % of control (dose: 25.0 mg/kg/injection, schedule: Q01DX005 (ip), vehicle: saline with Tween-80); 100 % of control and 107 % of control (dose: 50.0 mg/kg/injection, schedule: Q01DX005 (ip), vehicle: saline with Tween-80).

For `CCOC(=O)C(C(=O)OCC)c1nc[nH]c1[N+](=O)[O-]`, the T/C was 108 % of control (dose: 25.0 mg/kg/injection, schedule: Q04DX003 (ip), vehicle: saline with Tween-80); 104 % of control (dose: 50.0 mg/kg/injection, schedule: Q04DX003 (ip), vehicle: saline with Tween-80); 100 % of control and 97 % of control under setting [1].

Take `CN1CCCC1CCNc1nc(Nc2ccc(Cl)c(Cl)c2)nc2ccc(Cl)cc12` (stereo not drawn): the T/C was 95 % of control (dose: 6.25 mg/kg/injection, schedule: Q01DX009 (ip), vehicle: saline with Tween-80); 90 % of control under setting [2]; 100 % of control under setting [3].

As to `N#Cc1ccc(N)cc1C#N`, the T/C is, setting by setting: under setting [4], 94 % of control; under setting [5], 94 % of control; under setting [6], 96 % of control.

Take `CC1CN=C(c2ccc(NC(=O)Nc3ccc(C4=NCC(C)N4)cc3)cc2)N1` (stereo not drawn): the T/C is, setting by setting: (dose: 0.4 mg/kg/injection, schedule: Q01DX005 (ip), vehicle: saline with Tween-80) 106 % of control; (dose: 0.78 mg/kg/injection, schedule: Q01DX005 (ip), vehicle: saline with Tween-80) 104 % of control; (dose: 1.56 mg/kg/injection, schedule: Q01DX005 (ip), vehicle: saline with Tween-80) 117 % of control and 118 % of control; (dose: 3.13 mg/kg/injection, schedule: Q01DX005 (ip), vehicle: saline with Tween-80) 117 % of control; (dose: 6.25 mg/kg/injection, schedule: Q01DX005 (ip), vehicle: saline with Tween-80) 110 % of control.

As to `Cc1cc(O)c(C(=O)O)c2c1CCC(C1(C)CO1)C2` (stereo not drawn), the T/C by setting is: (dose: 1.56 mg/kg/injection, schedule: Q01DX005 (ip), vehicle: Klucel (hydroxypropylcellulose) (HPC)) 100 % of control; (dose: 3.12 mg/kg/injection, schedule: Q01DX005 (ip), vehicle: Klucel (hydroxypropylcellulose) (HPC)) 101 % of control; (dose: 6.25 mg/kg/injection, schedule: Q01DX005 (ip), vehicle: Klucel (hydroxypropylcellulose) (HPC)) 100 % of control; (dose: 12.5 mg/kg/injection, schedule: Q01DX005 (ip), vehicle: Klucel (hydroxypropylcellulose) (HPC)) 105 % of control; (dose: 25.0 mg/kg/injection, schedule: Q01DX005 (ip), vehicle: Klucel (hydroxypropylcellulose) (HPC)) 107 % of control.

`O=S(=O)(/C=C/c1cccnc1)/C=C/c1cccnc1`: the T/C runs as follows: under setting [3], 106 % of control; under setting [7], 100 % of control.

Turning to `O=C1C2C(C(=O)N1c1ccccc1)C1(c3cccnc3)NC(=O)C2(Cc2cccnc2)c2ccccc21` (stereo not drawn), the T/C was 104 % of control (dose: 15.0 mg/kg/injection, schedule: Q01DX005 (ip), vehicle: saline with Tween-80); 100 % of control and 96 % of control (dose: 30.0 mg/kg/injection, schedule: Q01DX005 (ip), vehicle: saline with Tween-80); 104 % of control and 88 % of control and 91 % of control under setting [8]; 88 % of control under setting [9]; 86 % of control under setting [10].

Consider `Cc1ccc(Cl)cc1S(=O)(=O)Cl`, for which the T/C runs as follows: (dose: 12.5 mg/kg/injection, schedule: Q01DX009 (ip), vehicle: distilled water + Tween-80) 100 % of control; (dose: 25.0 mg/kg/injection, schedule: Q01DX009 (ip), vehicle: distilled water + Tween-80) 110 % of control.

Regarding `CC1(C)CC(=O)C2=C(C1)NC(=O)CC2`, the T/C was 101 % of control under setting [8], 101 % of control under setting [9] and 96 % of control under setting [10].

For the compound `Cn1c2ccc(Cl)cc2c2c3ncncc3ccc21`, the T/C is 96 % of control (dose: 50.0 mg/kg/injection, schedule: Q01DX001 (ip), vehicle: Klucel (hydroxypropylcellulose) (HPC)); 89 % of control (dose: 100.0 mg/kg/injection, schedule: Q01DX001 (ip), vehicle: Klucel (hydroxypropylcellulose) (HPC)); 91 % of control (dose: 200.0 mg/kg/injection, schedule: Q01DX001 (ip), vehicle: Klucel (hydroxypropylcellulose) (HPC)).

On to `CCCCN(CCCC)C(=N)OC`, for which the T/C reads like this: (dose: 12.5 mg/kg/injection, schedule: Q01DX005 (ip), vehicle: suspension in saline) 100 % of control; (dose: 25.0 mg/kg/injection, schedule: Q01DX005 (ip), vehicle: suspension in saline) 108 % of control; under setting [11], 99 % of control; (dose: 50.0 mg/kg/injection, schedule: Q01DX005 (ip), vehicle: suspension in saline) 117 % of control.

`Nc1nc(N)c(-c2ccc(Cl)c(Cl)c2)c(CP(Cl)(Cl)(Cl)Br)n1`: the T/C runs as follows: (dose: 6.25 mg/kg/injection, schedule: Q01DX009 (ip), vehicle: Klucel (hydroxypropylcellulose) (HPC)) 96 % of control; (dose: 12.5 mg/kg/injection, schedule: Q01DX009 (ip), vehicle: Klucel (hydroxypropylcellulose) (HPC)) 104 % of control; (dose: 25.0 mg/kg/injection, schedule: Q01DX009 (ip), vehicle: Klucel (hydroxypropylcellulose) (HPC)) 109 % of control; under setting [4], 114 % of control.

`c1ccc2c(c1)nnn1c3ncccc3nc21`: the T/C is 108 % of control under setting [2], 105 % of control under setting [3] and 105 % of control under setting [7].

For `CCN(CC)C(=O)c1ccccc1-c1ccccc1C(=O)N(CC)CC`, the T/C is, setting by setting: (dose: 100.0 mg/kg/injection, schedule: Q04DX003 (ip), vehicle: saline) 101 % of control; (dose: 200.0 mg/kg/injection, schedule: Q04DX003 (ip), vehicle: saline) 98 % of control; (dose: 400.0 mg/kg/injection, schedule: Q04DX003 (ip), vehicle: saline) 95 % of control.

With `NC(CCCCNC=O)C(=O)O` (stereo not drawn), the T/C runs as follows: under setting [11], 104 % of control; under setting [12], 98 % of control; under setting [13], 96 % of control.

As for `O=C(CCl)c1ccc2ccc3c(c2c1)Nc1ccccc1S3`, the T/C is 96 % of control under setting [4], 99 % of control under setting [5] and 93 % of control under setting [6].

Consider `C(=C\c1ccncc1)/c1ccccc1`, for which the T/C is 92 % of control under setting [14] and 90 % of control under setting [15].

In the case of `O=C(CCCl)Nc1cccc(CCC(=O)c2ccccc2NC(=O)CCCl)c1`, the T/C by setting is: under setting [8], 89 % of control; under setting [9], 93 % of control; under setting [10], 88 % of control.

Regarding `C[n+]1ccc(NN)cc1`, the T/C is 100 % of control under setting [14]; 103 % of control under setting [15]; 101 % of control (dose: 200.0 mg/kg/injection, schedule: Q01DX005 (ip), vehicle: Klucel (hydroxypropylcellulose) (HPC)).

Regarding `O=c1[nH]cccc1[N+](=O)[O-]`, the T/C under setting [1] is 100 % of control; the T/C (dose: 200.0 mg/kg/injection, schedule: Q04DX003 (ip), vehicle: saline with Tween-80) is 100 % of control; the T/C (dose: 400.0 mg/kg/injection, schedule: Q04DX003 (ip), vehicle: saline with Tween-80) was 109 % of control; the T/C (dose: 600.0 mg/kg/injection, schedule: Q01DX009 (ip), vehicle: saline) is 90 % of control and 93 % of control.

`Cc1cc(=O)n2c3c(c4c(cc13)c(CN(C)C)cc(=O)n4C)OC2`: the T/C by setting is: under setting [2], 111 % of control; under setting [3], 152 % of control; under setting [7], 102 % of control and 118 % of control.

As to `C=CCC1(CC=C)CC1OCC` (stereo not drawn), the T/C under setting [11] is 98 % of control, the T/C under setting [12] is 100 % of control and the T/C under setting [13] is 100 % of control.

As for `O=C(Cc1ccccc1)c1ccc(F)cc1`, the T/C runs as follows: under setting [4], 98 % of control; under setting [5], 100 % of control; under setting [6], 99 % of control.

With `O=C1c2ccccc2C(=O)c2c(NCCCC3CCCN4CCCCC34)cccc21` (stereo not drawn), the T/C reads like this: under setting [14], 105 % of control; under setting [15], 100 % of control.

For the origin of these results see PubChem BioAssay AID330 (DTP/NCI, 2004).
